Results taken from US20090298825A1, “Bicycloheteroaryl Compounds as P2x7 Modulators and Uses Thereof” (priority 2006, published 2009).

Molecular target: T1, P2X7 receptor (Homo sapiens, UniProt Q99572)
T1 construct: endogenous in cells; host or cells: THP-1 cells differentiated with LPS and IFN-γ
T1 sequence (Q99572 1-595): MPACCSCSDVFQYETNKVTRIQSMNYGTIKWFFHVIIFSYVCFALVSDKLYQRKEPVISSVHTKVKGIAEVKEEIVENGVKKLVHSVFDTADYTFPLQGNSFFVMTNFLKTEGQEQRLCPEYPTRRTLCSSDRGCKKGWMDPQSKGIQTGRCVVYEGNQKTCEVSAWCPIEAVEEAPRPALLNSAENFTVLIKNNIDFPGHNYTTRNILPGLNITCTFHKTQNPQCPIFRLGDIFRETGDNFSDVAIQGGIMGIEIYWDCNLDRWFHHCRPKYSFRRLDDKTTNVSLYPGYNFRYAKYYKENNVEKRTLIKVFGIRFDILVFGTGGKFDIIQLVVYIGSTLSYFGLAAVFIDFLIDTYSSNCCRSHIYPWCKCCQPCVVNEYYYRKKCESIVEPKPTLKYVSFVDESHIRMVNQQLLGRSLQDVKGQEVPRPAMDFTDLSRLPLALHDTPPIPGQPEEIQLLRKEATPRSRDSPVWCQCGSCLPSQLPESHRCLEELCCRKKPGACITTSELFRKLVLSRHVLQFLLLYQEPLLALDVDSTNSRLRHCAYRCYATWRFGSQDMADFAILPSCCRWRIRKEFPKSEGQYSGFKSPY
Assay: IL-1β release assay in differentiated THP-1 cells stimulated with BzATP (Example 9)
Assay type: cell-based
Details: for inhibition at 0.1 µM: 0.1 μM concentration; for inhibition at 0.1 µM / inhibition at 0.3 µM: read-out: IL-1β % Inhib. @ 0.3 or 0.1 μM; for inhibition at 0.3 µM: 0.3 μM concentration; for IC50: four parameter logistic fit, read-out: IL-1β IC50
Procedure: The cells are then pretreated for 30 minutes with the compound of interest at the appropriate concentration in RPMI media containing 100 IU/mL penicillin, 100 ug/mL streptomycin. […] 30 uL of cell supernatant is then collected and IL-1β levels determined via ELISA (R&D systems Cat. # HSLB50) according to manufacturer's recommendations using the Tecan Safire plate reader. Background adjusted IL-1β levels of drug treated and non-treated cells are used to calculate the percent inhibition.
The compounds set forth in Table 1 were tested for activity in a cellular model as described herein. […] Measurements were made and IC50 values, presented in Table 2, below, were determined by fitting the data to a four parameter logistic equation using GraphPad Prism software (GraphPad Software, Inc). The equation may be expressed by the following formula:
Y=Bottom+(Top-Bottom)/(1+10̂((Log EC50−X)*HillSlope))
Where X is the logarithm of concentration, Y is the response and Y starts at Bottom and goes to Top with a sigmoid shape.

Compound	inhibition at 0.1 µM	inhibition at 0.3 µM	IC50
Cc1cc(-n2ccc3c(NC(=O)CCc4cccc(Cl)c4)cccc3c2=O)no1 [ID 746]	51 to 75%		
COc1ccc(C(=O)Nc2cccc3c(=O)n(-c4cc(C)on4)ccc23)cc1C [ID 744]	0 to 25%		
CCOC(=O)N1CCC(n2ccc3c(NC(=O)Cc4ccc(OC)c(C)c4)cccc3c2=O)CC1 [ID 806]	0 to 25%		
Cc1ncccc1-n1ccc2c(NC(=O)Cc3cc(F)c(F)c(F)c3)cccc2c1=O [ID 866]		51 to 75%	98.5 nM
O=C(Cc1ccc(F)c(Cl)c1)Nc1cccc2c(=O)n(C3CCC3)ccc12 [ID 893]		> 76%	48.3 nM
O=C(Cc1ccc(Cl)c(C(F)(F)F)c1)Nc1cccc2c(=O)n(C3CCC3)ccc12 [ID 899]		> 76%	6.19 nM
O=C(Cc1ccc(Cl)c(Cl)c1)Nc1cccc2c(=O)n(C3CC3)ccc12 [ID 876]		> 76%	15 nM
CCOC(=O)N1CCC(n2ccc3c(NC(=O)CCc4cccc(Cl)c4)cccc3c2=O)CC1 [ID 811]	0 to 25%		
CCOC(=O)N1CCC(n2ccc3c(NC(=O)c4cc(OC)cc(OC)c4)cccc3c2=O)CC1 [ID 769]	26 to 50%		
CCOC(=O)N1CCC(n2ccc3c(NC(=O)Cc4ccccc4Cl)cccc3c2=O)CC1 [ID 778]	0 to 25%		
O=C(CC12CC3CC(CC(C3)C1)C2)Nc1cccc2c(=O)n(-c3cc[nH]n3)ccc12 [ID 841]		> 76%	0.295 nM
O=C(Cc1ccc(Cl)c(F)c1)Nc1cccc2c(=O)n(C3CCC3)ccc12 [ID 897]		> 76%	24.5 nM
CCOC(=O)N1CCC(n2ccc3c(NC(=O)[C@H]4CC[C@H](C)CC4)cccc3c2=O)CC1 [ID 750]	0 to 25%		
CCOC(=O)N1CCC(n2ccc3c(NC(=O)Cc4c(C)cc(C)cc4C)cccc3c2=O)CC1 [ID 754]	0 to 25%		
COc1ccccc1CC(=O)Nc1cccc2c(=O)n(-c3cc(C)on3)ccc12 [ID 727]	0 to 25%		
CCOC(=O)N1CCC(n2ccc3c(NC(=O)c4ccc(OCC)cc4)cccc3c2=O)CC1 [ID 771]	0 to 25%		
Cc1cc(-n2ccc3c(NC(=O)C(C)c4ccc(Cl)c(C(F)(F)F)c4)cccc3c2=O)n[nH]1 (stereo not shown) [ID 838]		> 76%	14.9 nM
CCOC(=O)N1CCC(n2ccc3c(NC(=O)Cc4ccccc4OC)cccc3c2=O)CC1 [ID 779]	0 to 25%		
CCOC(=O)N1CCC(n2ccc3c(NC(=O)c4ccc(Cl)cc4C)cccc3c2=O)CC1 [ID 794]	0 to 25%		
Cc1cccc(CC(=O)Nc2cccc3c(=O)n(-c4cc(C)on4)ccc23)c1 [ID 731]	0 to 25%		
O=C(Cc1cccc(C(F)(F)F)c1F)Nc1cccc2c(=O)n(C3CC3)ccc12 [ID 885]		> 76%	0.322 nM
CCOC(=O)N1CCC(n2ccc3c(NC(=O)Cc4cc(C)cc(C)c4)cccc3c2=O)CC1 [ID 802]	0 to 25%		

Compound	inhibition at 0.1 µM	inhibition at 0.3 µM	IC50
O=C(CC1CCCCCC1)Nc1cccc2c(=O)n(C3CC3)ccc12 [ID 878]		> 76%	2.21 nM
Cc1cc(C)cc(CC(=O)Nc2cccc3c(=O)n(-c4cc(C)on4)ccc23)c1 [ID 737]	0 to 25%		
Cc1ncccc1-n1ccc2c(NC(=O)Cc3cccc(C(F)(F)F)c3F)cccc2c1=O [ID 854]		> 76%	27.1 nM
O=C(Cc1cccc(C(F)(F)F)c1F)Nc1cccc2c(=O)n(C3CN4CCC3CC4)ccc12 (stereo not shown) [ID 845]		> 76%	134 nM
COc1ccc(CC(=O)Nc2cccc3c(=O)n(-c4cc(C)on4)ccc23)cc1C [ID 741]	0 to 25%		
Cc1ccc(CC(=O)Nc2cccc3c(=O)n(-c4cc(C)on4)ccc23)cc1 [ID 733]	0 to 25%		
CCOC(=O)N1CCC(n2ccc3c(NC(=O)c4cccc5c4OCCO5)cccc3c2=O)CC1 [ID 798]	0 to 25%		
O=C(Cc1ccc(Cl)c(Cl)c1)Nc1cccc2c(=O)n([C@@H]3CCNC3)ccc12 [ID 827]		> 76%	25.5 nM
CCOC(=O)N1CCC(n2ccc3c(NC(=O)c4cccc(C)c4)cccc3c2=O)CC1 [ID 770]	0 to 25%		
CCOC(=O)N1CCC(n2ccc3c(NC(=O)c4ccc(OCC)cc4O)cccc3c2=O)CC1 [ID 748]	0 to 25%		
O=C(CC1CCCCCC1)Nc1cccc2c(=O)n(-c3cc[nH]n3)ccc12 [ID 844]		> 76%	3.33 nM
C[C@H](C(=O)Nc1cccc2c(=O)n([C@H]3CCNC3)ccc12)c1ccc(Cl)c(Cl)c1 [ID 832]		> 76%	73.6 nM
O=C(CC12CC3CC(CC(C3)C1)C2)Nc1cccc2c(=O)n(-c3ccc(Oc4ccccc4)nc3)ccc12 [ID 711]		> 76%	0.723 nM
O=C(Cc1ccc(C(F)(F)F)cc1)Nc1cccc2c(=O)n(C3CCC3)ccc12 [ID 891]		51 to 75%	283 nM
O=C(Cc1ccc(C(F)(F)F)cc1C(F)(F)F)Nc1cccc2c(=O)n(C3CC3)ccc12 [ID 880]		> 76%	67.8 nM
Cc1cc(-n2ccc3c(NC(=O)CCc4ccccc4Cl)cccc3c2=O)no1 [ID 718]	0 to 25%		
O=C(Cc1ccc(Cl)c(F)c1)Nc1cccc2c(=O)n(-c3cccnc3F)ccc12 [ID 873]		> 76%	31.4 nM
Cc1cc(-n2ccc3c(NC(=O)c4ccc(CC(C)C)cc4)cccc3c2=O)no1 [ID 747]	0 to 25%		
CCOC(=O)N1CCC(n2ccc3c(NC(=O)CCc4ccc5c(c4)OCO5)cccc3c2=O)CC1 [ID 759]	0 to 25%		
CCOC(=O)N1CCC(n2ccc3c(NC(=O)c4ccc(C)cc4C)cccc3c2=O)CC1 [ID 766]	0 to 25%		
COc1ccc(CC(=O)Nc2cccc3c(=O)n(-c4cc(C)on4)ccc23)cc1 [ID 732]	0 to 25%		

The next lines start with the values.

inhibition at 0.1 µM	inhibition at 0.3 µM	IC50	Compound
	> 76%	44.4 nM	O=C(Cc1ccc(Cl)c(C(F)(F)F)c1)Nc1cccc2c(=O)n(-c3cccnc3N3CCOCC3)ccc12 [ID 848]
0 to 25%			CCOC(=O)N1CCC(n2ccc3c(NC(=O)c4ccc(Cl)c(C)c4)cccc3c2=O)CC1 [ID 760]
	26 to 50%	305 nM	O=C(Cc1ccc(Cl)c(Cl)c1)Nc1cccc2c(=O)n(C3CCNCC3)ccc12 [ID 816]
0 to 25%			CCOC(=O)N1CCC(n2ccc3c(NC(=O)CCc4cccc(C)c4)cccc3c2=O)CC1 [ID 807]
0 to 25%			Cc1cc(-n2ccc3c(NC(=O)C4C[C@@H]5CC[C@H]4C5)cccc3c2=O)no1 (stereo partly shown) [ID 738]
	> 76%	4.33 nM	O=C(Cc1ccc(Cl)c(C(F)(F)F)c1)Nc1cccc2c(=O)n(C3CC3)ccc12 [ID 890]
0 to 25%			CCOC(=O)N1CCC(n2ccc3c(NC(=O)c4cc(C)c(OC)c(C)c4)cccc3c2=O)CC1 [ID 792]
	> 76%	17.2 nM	Cc1ncccc1-n1ccc2c(NC(=O)C(C)c3cccc(C(F)(F)F)c3F)cccc2c1=O (stereo not shown) [ID 862]
	51 to 75%	154 nM	CC(C(=O)Nc1cccc2c(=O)n(C3CCNC3)ccc12)c1ccc(Cl)c(Cl)c1 (stereo not shown) [ID 831]
0 to 25%			CCOC(=O)N1CCC(n2ccc3c(NC(=O)c4ccc(OC)c(C)c4)cccc3c2=O)CC1 [ID 809]
0 to 25%			Cc1cc(-n2ccc3c(NC(=O)c4ccccc4Cl)cccc3c2=O)no1 [ID 719]
	> 76%	30.4 nM	O=C(Cc1ccc(F)c(C(F)(F)F)c1)Nc1cccc2c(=O)n(-c3cccnc3F)ccc12 [ID 872]
0 to 25%			Cc1ccc(CCC(=O)Nc2cccc3c(=O)n(-c4cc(C)on4)ccc23)c(C)c1 [ID 745]
	> 76%	0.177 nM	Cc1ccncc1-n1ccc2c(NC(=O)CC34CC5CC(CC(C5)C3)C4)cccc2c1=O [ID 702]
0 to 25%			Cc1cc(-n2ccc3c(NC(=O)c4cccc(C)c4C)cccc3c2=O)no1 [ID 721]
0 to 25%			CCOC(=O)N1CCC(n2ccc3c(NC(=O)c4ccc(CC(C)C)cc4)cccc3c2=O)CC1 [ID 812]
	> 76%	26.2 nM	Cc1ccc(Oc2ncccc2-n2ccc3c(NC(=O)CC45CC6CC(CC(C6)C4)C5)cccc3c2=O)c2c1CCC2 [ID 708]
0 to 25%			CCOC(=O)N1CCC(n2ccc3c(NC(=O)c4ccc5c(c4)OCCCO5)cccc3c2=O)CC1 [ID 799]
0 to 25%			CCOC(=O)N1CCC(n2ccc3c(NC(=O)Cc4ccccc4F)cccc3c2=O)CC1 [ID 777]
